Values of other authors in patent US20070142355A1, “Association of a sinus node If curent inhibitor and an angiotensin converting enzyme inhibitor, and pharmaceutical compositions containing it” (LES LABORATOIRES SERVIER, priority 2005, published 2007).

Details: ivabradine alone, as generally established in clinical trials

For COc1cc2c(cc1OC)CC(=O)N(CCCN(C)C[C@H]1Cc3cc(OC)c(OC)cc31)CC2 [ivabradine, 3-{3-[{[(7S)-3,4-dimethoxy-bicyclo[4.2.0]octa-1,3,5-trien-7-yl]methyl}(methyl)amino]propyl}-7,8-dimethoxy-1,3,4,5-tetrahydro-2H-3-benzazepin-2-one], the “slight increase in systolic arterial pressure” value is listed as roughly 1 mmHg.
